The source of these data is patent US7563864B2, “Prolyl endopeptidase mediated destruction of T cell epitopes in whole gluten” (Celiac Sprue Research Foundation, priority 2004, dated 2009).

Type in all cases: cell-based, human
Conditions in all cases: DQ2+ APC, 5 μM TG2-treated peptide, 3H thymidine incorporation

In assay [1] the test system is intestinal T cell line 432.2.1. Briefly: T cell proliferation assay, polyclonal T cell line 432.2.1. On the set-up: key: −: no response; Stimulatory index (SI; T + APC + TG2-treated peptide divided by T + APC) of 3-10; ++: SI above 10. An excerpt:
(§1) T cell assays—The generation of polyclonal gluten-specific T cell lines derived from ex vivo gluten challenged small intestinal biopsy specimens of adult Celiac Sprue patients have been described elsewhere. For this study 14 different intestinal T cell lines derived from 13 DQ2+celiac patients were selected based on two basic criteria; effective recognition of TG2-treated digests of gluten and significant responses to at least two different gluten epitopes (Table 2). The generation of intestinal T cell clones and the epitope specificity of these clones, except TCC 387.3, has been described elsewhere (10). The TCC 387.3 recognizes a TG2-dependent epitope, defined as γ-VI that is contained within residues 62-72 (PQQPFPQQPQQ) of recombinant γ-5 gliadin. The freeze-dried, proteolyzed gluten samples were dissolved in PBS with 2 mM CaCl2 and treated with 150 μg/ml human recombinant TG2 (14) or, in some experiments 200 μg/ml guinea pig transglutaminase (Sigma T-5398), for 2 hours at 37° C. The TG2-treated samples were incubated overnight in triplicates on U-bottomed 96 well plates with 75 000 cells per well of DQ2 homozygous, irradiated (75 Gy) EBV-transformed B-lymphoblastoid cell lines in a volume of 100 μl 15% pooled, inactivated human serum and RPMI1640. After the incubation 50 μl of freshly thawed T cells (1×10^6 cells/ml) were added to each well. The proliferation in the wells was evaluated by ^3H thymidine incorporation from 48-72 hours after the addition of the T cells.

Assay [2] relates to intestinal T cell line 491.1.3. In words: T cell proliferation assay, polyclonal T cell line 491.1.3. On the set-up: key: −: no response; Stimulatory index (SI; T + APC + TG2-treated peptide divided by T + APC) of 3-10; ++: SI above 10.
Source text: as §1

In assay [3] the test system is intestinal T cell line 502.1.2. In words: T cell proliferation assay, polyclonal T cell line 502.1.2. On the set-up: key: −: no response; Stimulatory index (SI; T + APC + TG2-treated peptide divided by T + APC) of 3-10; ++: SI above 10.
Source text: as §1

The subject of assay [4] is intestinal T cell line 461.1.4. In words: T cell proliferation assay, polyclonal T cell line 461.1.4. On the set-up: key: −: no response; Stimulatory index (SI; T + APC + TG2-treated peptide divided by T + APC) of 3-10; ++: SI above 10.
Source text: as §1

The subject of assay [5] is intestinal T cell line 437.1.3. In words: T cell proliferation assay, polyclonal T cell line 437.1.3. On the set-up: key: −: no response; Stimulatory index (SI; T + APC + TG2-treated peptide divided by T + APC) of 3-10; ++: SI above 10.
Source text: as §1

The test system of assay [6] is intestinal T cell line 422.4.2. In words: T cell proliferation assay, polyclonal T cell line 422.4.2. On the set-up: key: −: no response; Stimulatory index (SI; T + APC + TG2-treated peptide divided by T + APC) of 3-10; ++: SI above 10.
Source text: as §1

Assay [7] has as its system intestinal T cell line 421.1.4. In words: T cell proliferation assay, polyclonal T cell line 421.1.4. On the set-up: key: −: no response; Stimulatory index (SI; T + APC + TG2-treated peptide divided by T + APC) of 3-10; ++: SI above 10.
Source text: as §1

The subject of assay [8] is intestinal T cell line 451.1.1. In words: T cell proliferation assay, polyclonal T cell line 451.1.1. On the set-up: key: −: no response; Stimulatory index (SI; T + APC + TG2-treated peptide divided by T + APC) of 3-10; ++: SI above 10.
Source text: as §1

Assay [9] concerns intestinal T cell line 437.1.1. In words: T cell proliferation assay, polyclonal T cell line 437.1.1. On the set-up: key: −: no response; Stimulatory index (SI; T + APC + TG2-treated peptide divided by T + APC) of 3-10; ++: SI above 10.
Source text: as §1

The test system of assay [10] is intestinal T cell line 482.1.4. In words: T cell proliferation assay, polyclonal T cell line 482.1.4. On the set-up: key: −: no response; Stimulatory index (SI; T + APC + TG2-treated peptide divided by T + APC) of 3-10; ++: SI above 10.
Source text: as §1

The subject of assay [11] is intestinal T cell line 446.1.3. In words: T cell proliferation assay, polyclonal T cell line 446.1.3. On the set-up: key: −: no response; Stimulatory index (SI; T + APC + TG2-treated peptide divided by T + APC) of 3-10; ++: SI above 10.
Source text: as §1

For assay [12], the system named is intestinal T cell line 496.1.2. In words: T cell proliferation assay, polyclonal T cell line 496.1.2.
Source text: as §1

Assay [13] relates to intestinal T cell line 488.3.1. Briefly: T cell proliferation assay, polyclonal T cell line 488.3.1. On the set-up: key: −: no response; Stimulatory index (SI; T + APC + TG2-treated peptide divided by T + APC) of 3-10; ++: SI above 10.
Source text: as §1

In assay [14] the test system is intestinal T cell line 494.1.1. Briefly: T cell proliferation assay, polyclonal T cell line 494.1.1. On the set-up: key: −: no response; Stimulatory index (SI; T + APC + TG2-treated peptide divided by T + APC) of 3-10; ++: SI above 10.
Source text: as §1

Turning to GIIQPQQPAQL [γ-II], the “Response to TG2-treated gluten peptides (stimulatory index)” value (shortened to “Response … (stimulatory index)”) in [1], in assay [2], in assay [3], in assay [4], in [5] and in assay [6] was “−” in each case. The “Response … (stimulatory index)” value in [7] is reported as “+ (Stimulatory index (SI; T + APC + TG2-treated peptide divided by T + APC) of 3-10)”; in assay [8], “++ (SI above 10)”; in [9], “−”; in assay [10], “−”; in [11], “++ (SI above 10)”; in assay [12] it was “++ (SI above 10)”. Besides, the “Response … (stimulatory index)” value in assay [13] and in assay [14] was “−” in each case.

As for “LQLQPFPQPQLPYPQPQLPYPQPQLPYPQPQPF [αG-33]”, the “Response … (stimulatory index)” value is listed as “++ (SI above 10)” in assay [1]; “++ (SI above 10)” in assay [2]; “++ (SI above 10)” in assay [3]; “+ (Stimulatory index (SI; T + APC + TG2-treated peptide divided by T + APC) of 3-10)” in assay [4]; “++ (SI above 10)” in [5]; “++ (SI above 10)” in assay [6]. Moreover, the “Response … (stimulatory index)” value in assay [7], in [8], in assay [9], in [10], in [11] and in assay [12] was “++ (SI above 10)” throughout. The “Response … (stimulatory index)” value in assay [13] and in assay [14] was “++ (SI above 10)” throughout.

Regarding LQPQQPFPQQPQQPYPQQPQ [γ-III and γ-VI], the “Response … (stimulatory index)” value in assay [1] was “−”; in assay [2], “−”; in [3], “+ (Stimulatory index (SI; T + APC + TG2-treated peptide divided by T + APC) of 3-10)”; in assay [4], “+ (Stimulatory index (SI; T + APC + TG2-treated peptide divided by T + APC) of 3-10)”; in assay [5] it was “−”; in assay [6] it was “−”. For the same sequence, the “Response … (stimulatory index)” value in [7] is listed as “+ (Stimulatory index (SI; T + APC + TG2-treated peptide divided by T + APC) of 3-10)”; in assay [8], “−”; in assay [9], “−”; in assay [10], “−”; in [11], “−”; in assay [12] it was “+ (Stimulatory index (SI; T + APC + TG2-treated peptide divided by T + APC) of 3-10)”. Besides, the “Response … (stimulatory index)” value in [13] is “+ (Stimulatory index (SI; T + APC + TG2-treated peptide divided by T + APC) of 3-10)”; in assay [14], “++ (SI above 10)”.

For the sequence PQPQLPYPQPQLPY [α-II], the “Response … (stimulatory index)” value was “++ (SI above 10)” in assay [1]; “++ (SI above 10)” in assay [2]; “+ (Stimulatory index (SI; T + APC + TG2-treated peptide divided by T + APC) of 3-10)” in assay [3]; “+ (Stimulatory index (SI; T + APC + TG2-treated peptide divided by T + APC) of 3-10)” in assay [4]; “+ (Stimulatory index (SI; T + APC + TG2-treated peptide divided by T + APC) of 3-10)” in assay [5]; “++ (SI above 10)” in assay [6]. Besides, the “Response … (stimulatory index)” value in assay [7] is reported as “+ (Stimulatory index (SI; T + APC + TG2-treated peptide divided by T + APC) of 3-10)”; in assay [8], “+ (Stimulatory index (SI; T + APC + TG2-treated peptide divided by T + APC) of 3-10)”; in assay [9] it was “+ (Stimulatory index (SI; T + APC + TG2-treated peptide divided by T + APC) of 3-10)”; in [10] it was “+ (Stimulatory index (SI; T + APC + TG2-treated peptide divided by T + APC) of 3-10)”; in assay [11], “++ (SI above 10)”; in [12] it was “+ (Stimulatory index (SI; T + APC + TG2-treated peptide divided by T + APC) of 3-10)”. The “Response … (stimulatory index)” value in [13] and in assay [14] was “++ (SI above 10)” throughout.

Take QLQPFPQPQLPY [α-I]: the “Response … (stimulatory index)” value is “−” in [1]; “+ (Stimulatory index (SI; T + APC + TG2-treated peptide divided by T + APC) of 3-10)” in [2]; “++ (SI above 10)” in assay [3]; “−” in assay [4]; “+ (Stimulatory index (SI; T + APC + TG2-treated peptide divided by T + APC) of 3-10)” in [5]; “+ (Stimulatory index (SI; T + APC + TG2-treated peptide divided by T + APC) of 3-10)” in assay [6]. Moreover, the “Response … (stimulatory index)” value is listed as “−” in assay [7]; “−” in assay [8]; “−” in [9]; “−” in assay [10]; “+ (Stimulatory index (SI; T + APC + TG2-treated peptide divided by T + APC) of 3-10)” in [11]; “++ (SI above 10)” in assay [12]. Moreover, the “Response … (stimulatory index)” value in assay [13] and in assay [14] was “+ (Stimulatory index (SI; T + APC + TG2-treated peptide divided by T + APC) of 3-10)” each time.
